Source: patent US20110045101A1, “FUNGICIDAL SUBSTITUTED AZOLES” (E.I. Du Pont De Nemours and Company, priority 2009, published 2011)
Marks after values point to notes of the source that are not given here.

Columns and labels:
Type in all cases: in vivo
Settings in all cases: 100 = 100% disease control
Alternaria solani = experiment: Test D: tomato early blight, sprayed the day before inoculation, visual disease rating
Outline: (§1)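 Ratings reflect a 200 ppm spray (≈500 g/ha) unless marked as 40 ppm. Plants were sprayed to run-off. The spray suspension was acetone/purified water 50/50 containing 250 ppm Trem 014, after first dissolving compound in acetone at 3% of final volume.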

Septoria nodorum = experiment: Test F: wheat glume blotch on wheat seedlings, sprayed the day before inoculation, visual disease rating
Outline: as §1

[1] = system: Erysiphe graminis f. sp. tritici; experiment: Test J: wheat powdery mildew on wheat seedlings, sprayed the day before inoculation, visual disease rating
Outline: as §1

Septoria tritici = experiment: Test G: wheat leaf blotch on wheat seedlings, sprayed the day before inoculation, visual disease rating
Outline: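 Disease was rated visually after Septoria tritici inoculation, 48 h saturated incubation at 24°C and 19 days in a 20°C growth chamber. Inoculation followed one day after run-off spraying of seedlings with compound at 200 ppm (≈500 g/ha) or, where marked, 40 ppm, formulated in acetone/water with surfactant.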

Botrytis cinerea = experiment: Test C: tomato Botrytis on tomato seedlings, sprayed the day before inoculation, visual disease rating
Outline: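 Disease scored by eye on tomato seedlings inoculated with Botrytis cinerea a day after treatment. Treatment was a run-off spray at 200 ppm (equivalent to 500 g/ha), or 40 ppm where marked, in acetone/water carrying 250 ppm Trem 014.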

[2] = system: Puccinia recondita f. sp. tritici; experiment: Test I: wheat leaf rust on wheat seedlings, sprayed the day before inoculation, visual disease rating
Outline: as §1

[3] = system: Puccinia recondita f. sp. tritici; experiment: Test H: wheat leaf rust, test suspension sprayed after inoculation of wheat seedlings, visual disease rating
Outline: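 Wheat seedlings inoculated with P. recondita spores, held 24 h saturated at 20 °C, then 2 days in growth chamber at 20 °C; compound suspension (acetone/water with Trem 014) sprayed to run-off afterwards. Rated visually; 200 ppm (≈500 g/ha) unless marked *, which denotes 40 ppm.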

[4] = 200 ppm, 0 = no control relative to controls

SMILES | Test D disease control rating (Alternaria solani; [4]) [%] | Test F disease control rating (Septoria nodorum; [4]) [%] | Test J disease control rating [1, 4] [%] | Test G disease control rating (Septoria tritici; [4]) [%] | Test C disease control rating (Botrytis cinerea; [4]) [%] | Test I disease control rating [2, 4] [%] | Test H disease control rating [3, 4] [%] | Test D disease control rating (Alternaria solani; 40 ppm (marked *)) | Test F disease control rating (Septoria nodorum; 40 ppm (marked *)) | Test J disease control rating ([1]; 40 ppm (marked *)) | Test G disease control rating (Septoria tritici; 40 ppm (marked *)) | Test C disease control rating (Botrytis cinerea; 40 ppm (marked *)) | Test I disease control rating ([2]; 40 ppm (marked *)) | Test H disease control rating ([3]; 40 ppm (marked *))
COc1ccc(F)c(-c2c(Cl)nc(Br)n2-c2ccc(Br)cc2)c1F [compound 563] | 100 | 100 | 100 | 100 | 100 | 94 | 0 | – | – | – | – | – | – | –
COc1cc(F)c(-n2c(Cl)nc(C)c2-c2ccc(C)cc2)c(F)c1 [compound 564] | – | – | – | – | – | – | – | 100* % | 64* % | 100* % | 99* % | 99* % | 100* % | 66* %
COc1cc(F)c(-c2c(Cl)nc(Cl)n2-c2cccc(OC(F)F)c2)c(F)c1 [compound 565] | 100 | 100 | 100 | 96 | 100 | 100 | 97 | – | – | – | – | – | – | –
COc1cc(F)c(-c2c(Cl)nc(Cl)n2-c2ccc(OC(F)F)cc2)c(F)c1 [compound 566] | 100 | 100 | 100 | 97 | 100 | 100 | 97 | – | – | – | – | – | – | –
COc1cc(F)c(-c2c(Cl)nc(Cl)n2-c2cccc(OC(F)(F)F)c2)c(F)c1 [compound 567] | 67 | 0 | 100 | 94 | 99 | 99 | 7 | – | – | – | – | – | – | –
COc1cc(F)c(-c2c(Cl)nc(Cl)n2-c2ccc(OC(F)(F)F)cc2)c(F)c1 [compound 568] | 100 | 98 | 100 | 94 | 99 | 100 | 72 | – | – | – | – | – | – | –
COc1cc(F)c(-c2c(Cl)nc(C)n2-c2ccc(OC(F)F)cc2)c(F)c1 [compound 569] | 100 | 100 | 99 | 97 | 100 | 100 | 84 | – | – | – | – | – | – | –
COc1cc(F)c(-c2c(Cl)nc(Cl)n2-c2ccc(C)c(C#N)c2)c(F)c1 [compound 572] | – | – | – | – | – | – | – | 99* % | 92* % | 71* % | 95* % | 100* % | 99* % | 0* %
Cc1nc(Cl)n(-c2ccc(F)cc2Cl)c1-c1ccc(Cl)c(F)c1 [compound 573] | 100 | 0 | 99 | 96 | 100 | 100 | 22 | – | – | – | – | – | – | –
COc1cc(Cl)c(-c2c(Cl)nc(Br)n2-c2ccc(Cl)c(F)c2)c(Cl)c1 [compound 574] | 0 | 60 | 97 | 100 | 100 | 98 | 0 | – | – | – | – | – | – | –
COc1cc(C#N)cc(F)c1-c1c(Cl)nc(Cl)n1-c1ccc(Cl)c(F)c1 [compound 575] | 0 | 0 | 72 | 73 | 96 | 76 | 0 | – | – | – | – | – | – | –
COc1cc(F)c(-c2c(Cl)nc(Cl)n2-c2cccnc2Br)c(F)c1 [compound 576] | 99 | 100 | 99 | 100 | 100 | 100 | 100 | – | – | – | – | – | – | –
Cc1ccc(-n2c(Cl)nc(Cl)c2-c2c(F)cccc2F)nc1 [compound 577] | 100 | 87 | 100 | 100 | 100 | 100 | 97 | – | – | – | – | – | – | –
COc1cc(F)c(-n2c(Cl)nc(CCl)c2-c2ccc(C)cc2)c(F)c1 [compound 581] | – | – | – | – | – | – | – | 33* % | 0* % | 21* % | 96* % | 99* % | 98* % | 84* %
COc1ccc(F)c(-c2c(Cl)nc(C)n2-c2ccc(Br)cc2)c1F [compound 582] | 100 | 99 | 100 | 97 | 100 | 99 | 15 | – | – | – | – | – | – | –
Fc1cc(F)c(-c2c(Cl)ncn2-c2cccc(OC(F)F)c2)c(F)c1 [compound 584] | 99 | 0 | 99 | 98 | 99 | 100 | 0 | – | – | – | – | – | – | –
Fc1cc(F)c(-c2c(Cl)ncn2-c2ccc(OC(F)F)cc2)c(F)c1 [compound 585] | 99 | 0 | 99 | 100 | 100 | 100 | 0 | – | – | – | – | – | – | –
Fc1cc(F)c(-c2c(Cl)ncn2-c2cccc(OC(F)(F)F)c2)c(F)c1 [compound 586] | 0 | 0 | 21 | 3 | 0 | 0 | 0 | – | – | – | – | – | – | –
Fc1cc(F)c(-c2c(Cl)ncn2-c2ccc(OC(F)(F)F)cc2)c(F)c1 [compound 587] | 80 | 0 | 97 | 97 | 25 | 0 | 7 | – | – | – | – | – | – | –
COc1cc(F)c(-c2c(Cl)nc(C)n2-c2cccc(OC(F)F)c2)c(F)c1 [compound 588] | 100 | 100 | 100 | 97 | 100 | 100 | 100 | – | – | – | – | – | – | –
